# Laboratory results taken from ChEMBL document CHEMBL5120836, “Discovery of novel 7,8-dihydropteridine-6(5H)-one-based DNA-PK inhibitors as potential anticancer agents via scaffold hopping strategy” (Eur J Med Chem, 2022).
# How the values were obtained:
# [1] = target: Phosphatidylinositol 4,5-bisphosphate 3-kinase catalytic subunit beta isoform (Homo sapiens, UniProt P42338); test: Inhibition of human PI3Kbeta by ADP-Glo assay; assay type: toxicity
# [2] = system: HCT-116; test: Induction of apoptosis in human HCT-116 cells assessed as necrotic cells at 1 uM incubated for 24 hrs by AnnexinV-FITC/PI staining based flow cytometry (reference value: 0.031%); assay type: functional
# [3] = system: HL-60; test: Synergistic antiproliferative activity against human HL-60 cells assessed as combination index at 3.1 uM in presence of 0.1 uM doxorubicin by MTT assay; assay type: functional
# [4] = system: MCF7; test: Synergistic antiproliferative activity against human MCF7 cells assessed as combination index at 0.5 uM in presence of 0.1 uM doxorubicin by MTT assay; assay type: functional
# [5] = system: MCF7; test: Synergistic antiproliferative activity against human MCF7 cells assessed as combination index at 6.25 uM in presence of 0.1 uM doxorubicin by MTT assay; assay type: functional
# [6] = system: MCF7; test: Synergistic antiproliferative activity against human MCF7 cells assessed as combination index at 100 uM in presence of 0.1 uM doxorubicin by MTT assay; assay type: functional
# [7] = system: HepG2; test: Synergistic antiproliferative activity against Doxorubicin-resistant human HepG2 cells assessed as combination index at 1 uM in presence of 0.1 uM doxorubicin by MTT assay; assay type: functional
# [8] = Half life in human liver microsomes; assay type: ADME, Microsome
# [9] = AUC (0 to infinity) in Sprague-Dawley rat at 5 mg/kg, po; assay type: ADME, organism-based; set-up: time infinity, dose 5 mg/kg, route po; conditions: in vivo
# [10] = Toxicity in BALB/c nude mouse xenografted with human HL-60 cells assessed as effect on body weight at 100 mg/kg, po qd for 16 days co-administered with doxorubicin; assay type: organism-based; conditions: in vivo, 384 h, time 16 day
# [11] = Toxicity in BALB/c nude mouse xenografted with human HL-60 cells assessed as HGB level at 100 mg/kg, po qd for 16 days (reference value: 156 g/L); assay type: organism-based; conditions: in vivo, 384 h, time 16 day
# [12] = Toxicity in BALB/c nude mouse xenografted with human HL-60 cells assessed as RDW-CV level at 100 mg/kg, po qd for 16 days (reference value: 14.25%); assay type: organism-based; conditions: in vivo, 384 h, time 16 day
# [13] = Toxicity in BALB/c nude mouse xenografted with human HL-60 cells assessed as HCT level at 100 mg/kg, po qd for 16 days (reference value: 66.3%); assay type: organism-based; conditions: in vivo, 384 h, time 16 day
# [14] = Toxicity in BALB/c nude mouse xenografted with human HL-60 cells assessed as PDW level at 100 mg/kg, po qd for 16 days (reference value: 8.16 fL); assay type: organism-based; conditions: in vivo, 384 h, time 16 day
# Chain of Phosphatidylinositol 4,5-bisphosphate 3-kinase catalytic subunit beta isoform (P42338 whole entry, canonical isoform): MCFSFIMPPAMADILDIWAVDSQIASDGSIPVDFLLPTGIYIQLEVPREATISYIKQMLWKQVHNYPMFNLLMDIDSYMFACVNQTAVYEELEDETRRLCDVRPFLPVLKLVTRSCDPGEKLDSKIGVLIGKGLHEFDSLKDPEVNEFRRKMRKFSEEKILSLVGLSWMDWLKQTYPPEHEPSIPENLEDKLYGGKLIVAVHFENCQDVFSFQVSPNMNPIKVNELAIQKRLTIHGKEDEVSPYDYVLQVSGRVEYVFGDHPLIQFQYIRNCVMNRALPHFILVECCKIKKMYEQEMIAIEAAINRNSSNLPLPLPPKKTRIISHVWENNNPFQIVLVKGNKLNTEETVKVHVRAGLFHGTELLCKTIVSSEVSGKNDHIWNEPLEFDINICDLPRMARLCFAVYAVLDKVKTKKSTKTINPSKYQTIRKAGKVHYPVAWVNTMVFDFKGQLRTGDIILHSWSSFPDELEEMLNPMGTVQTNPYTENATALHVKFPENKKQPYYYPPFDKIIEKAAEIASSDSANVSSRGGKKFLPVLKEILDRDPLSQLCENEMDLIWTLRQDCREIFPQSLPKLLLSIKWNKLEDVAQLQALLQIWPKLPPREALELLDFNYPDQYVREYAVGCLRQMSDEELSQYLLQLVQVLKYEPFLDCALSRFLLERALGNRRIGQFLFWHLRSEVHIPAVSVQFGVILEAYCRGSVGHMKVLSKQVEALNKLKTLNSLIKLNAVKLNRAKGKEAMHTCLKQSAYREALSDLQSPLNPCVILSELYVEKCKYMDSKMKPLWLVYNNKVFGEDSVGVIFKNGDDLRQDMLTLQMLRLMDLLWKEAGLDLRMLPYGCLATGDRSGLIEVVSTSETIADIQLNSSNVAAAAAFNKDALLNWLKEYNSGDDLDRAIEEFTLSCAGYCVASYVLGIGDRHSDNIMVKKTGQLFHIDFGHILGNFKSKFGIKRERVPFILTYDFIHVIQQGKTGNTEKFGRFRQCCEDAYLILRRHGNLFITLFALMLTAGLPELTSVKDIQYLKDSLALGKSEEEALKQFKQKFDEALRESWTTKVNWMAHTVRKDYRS
structure (smiles),measurement,setting,value
Cc1cc2ncnn2cc1Nc1ncc2c(n1)N(C1CCOCC1)CC(=O)N2C,IC50,[1],830 nM
same,Activity,[2],0.015%
same,CI,[3],0.01772
same,CI,[4],0.04646
same,CI,[5],0.06841
same,CI,[6],0.2764
same,CI,[7],0.011
same,half-life,[8],> 2.42 h
same,AUC(0-inf),[9],3600 ng·h/mL
same,Activity,[10],Non-Toxic
same,Activity,[11],148 g/L
same,Activity,[12],15%
same,Activity,[13],65.1%
same,Activity,[14],7.4 fL
